What was measured:
[1] = molecular target: Mcl-1 protein (Homo sapiens, UniProt Q07820); experiment: Inhibition of Mcl-1 by the fluorescence polarisation technique; type: binding; conditions: fluorescence polarisation test; Fluorescein labelled ligand 1 nM, Mcl-1 protein 5 nM, ~2 hours at r.t.; read-out: IC50 (M) Mcl-1 FP
Description: The relative binding potency of each compound was determined via Fluorescence Polarisation (FP). The method utilised a Fluorescein labelled ligand (Fluorescein-βAla-Ahx-A-REIGAQLRRMADDLNAQY-OH; mw 2,765) which binds to the Mcl-1 protein (such that Mcl-1 corresponds to the UniProtKB® primary accession number: Q07820) leading to an increased anisotropy measured in milli-polarisation (mP) units using a reader. The addition of a compound which binds competitively to the same site as the ligand will result in a greater proportion of unbound ligand in the system indicated by a decrease in mP units.
An 11 point serial dilution of each compound was prepared in DMSO and 2 μl transferred into flat bottomed, low binding, 384-well plate (final DMSO concentration 5%). 38 μl of buffer (10 mM 4-(2-hydroxyethyl)-1-piperazineethanesulfonic acid [HEPES], 150 mM NaCl, 0.05% Tween 20, pH 7.4), containing the Fluorescein labelled ligand (final concentration 1 nM) and Mcl-1 protein (final concentration 5 nM) was then added.
Assay plates were incubated ˜2 hours at r.t. before FP was measured on a Biomek Synergy2 reader (Ex. 528 nm, Em. 640 nm, Cut off 510 nm) and mP units calculated. The binding of increasing doses of test compound was expressed as a percentage reduction in mP compared to a window established between ‘5% DMSO only’ and ‘100% inhibition’ controls. 11-point dose response curves were plotted with XL-Fit software using a 4-Parameter Logistic Model (Sigmoidal Dose-Response Model) and the inhibitory concentrations that gave a 50% reduction in mP (IC50) were determined.

[2] = tested on: H929 cells; experiment: In vitro cytotoxicity (MTT) on H929 multiple myeloma tumour line; type: cell-based; conditions: Microculture Tetrazolium Assay
Description: The cytotoxicity studies were carried out on the H929 multiple myeloma tumour line.
The cells are distributed onto microplates and exposed to the test compounds for 48 hours.
The cell viability is then quantified by a colorimetric assay, the Microculture Tetrazolium Assay (Cancer Res., 1987, 47, 939-942).

[3] = Homo sapiens, NCI-H929, exposed 48 hours

Sequence of Mcl-1 protein (Q07820 whole entry): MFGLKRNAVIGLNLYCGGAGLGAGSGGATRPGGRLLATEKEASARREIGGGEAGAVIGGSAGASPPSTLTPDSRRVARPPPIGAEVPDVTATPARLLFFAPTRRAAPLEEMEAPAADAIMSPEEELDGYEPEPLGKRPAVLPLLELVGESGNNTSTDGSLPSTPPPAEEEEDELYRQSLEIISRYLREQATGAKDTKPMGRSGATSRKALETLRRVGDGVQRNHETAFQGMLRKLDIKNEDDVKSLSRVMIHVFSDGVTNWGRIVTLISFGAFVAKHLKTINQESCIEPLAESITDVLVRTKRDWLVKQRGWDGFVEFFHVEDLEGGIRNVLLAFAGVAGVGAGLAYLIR

SMILES	IC50 [1]	IC50 [2, 3]	IC50 ([2]; exposed 48 hours)
Cc1c(-c2c(-c3ccc(F)cc3)sc3ncnc(OC(Cc4ccccc4OCc4ccnc(-c5cccc(COCCO)c5)n4)C(=O)O)c23)ccc(OCCN2CCN(C)CC2)c1Cl [Example 12, (2R)-2-{[(5Sa)-5-{3-chloro-2-methyl-4-[2-(4-methylpiperazin-1-yl(ethoxy]phenyl}-6-(4-fluorophenyl)thieno[2,3-d]pyrimidin-4-yl]oxy}-3-{2-[(2-{3-[(2-hydroxyethoxy)methyl]phenyl}pyrimidin-4-yl)methoxy]phenyl}propanoic acid]	4.25e-09 M	3.82 nM	–
COCC(COC)Oc1cccc(-c2nccc(COc3ccccc3CC(Oc3ncnc4sc(-c5ccc(F)cc5)c(-c5ccc(OCCN6CCN(C)CC6)c(Cl)c5C)c34)C(=O)O)n2)c1 [Example 13, (2R)-2-{[(5Sa)-5-{3-chloro-2-methyl-4-[2-(4-methylpiperazin-1-yl)ethoxy]phenyl}-6-(4fluorophenyl)thieno[2,3-d]pyrimidin-4-yl]oxy}-3-{2-[(2-{3-[(1,3-dimethoxypropan-2-yl)oxy]phenyl}pyrimidin-4-yl)methoxy]phenyl}propanoic acid]	5.1e-09 M	3.59 nM	–
COCC(COC)Oc1ccc(-c2nccc(COc3ccccc3CC(Oc3ncnc4sc(-c5ccc(F)cc5)c(-c5ccc(OCCN6CCN(C)CC6)c(Cl)c5C)c34)C(=O)O)n2)cc1 [Example 14, (2R)-2-{[(5Sa)-5-{3-chloro-2-methyl-4-[2-(4-methylpiperazin-1-yl)ethoxy]phenyl}-6-(4-fluorophenyl)thieno[2,3-d]pyrimidin-4-yl]oxy}-3-{(2-[(2-{4-[(1,3-dimethoxypropan-2-yl)oxy]phenyl}pyrimidin-4-yl)methoxy]phenyl}propanoic acid]	6.15e-09 M	3.37 nM	–
Cc1c(-c2c(-c3ccc(F)cc3)sc3ncnc(OC(Cc4ccccc4OCc4ccnc(-c5ccc(OCC(O)CO)cc5)n4)C(=O)O)c23)ccc(OCCN2CCN(C)CC2)c1Cl [Example 15, (2R)-2-{[(5Sa)-5-{3-chloro-2-methyl-4-[2-(4-methylpiperazin-1-yl)ethoxy]phenyl}-6-(4-fluorophehenyl)thieno[2,3-d]pyrimidin-4-yl]oxy}-3-[2-({2-[4-(2,3-dihydroxypropoxy)phenyl]pyrimidin-4-yl}methoxy)phenyl]propanoic acid]	2.75e-09 M	3.59 nM	–
COC1OC(COc2cccc(-c3nccc(COc4ccccc4CC(Oc4ncnc5sc(-c6ccc(F)cc6)c(-c6ccc(OCCN7CCN(C)CC7)c(Cl)c6C)c45)C(=O)O)n3)c2)C(O)C(O)C1O [Example 16, methyl 6-O-{3-[4-({2-[(2R)-2-carboxy-2-{[(5Sa)-5-{3-chloro-2-methyl-4-[2-(4-methylpiperazin-1-yl)ethoxy]phenyl}-6-(4-flurophenyl)thieno[2,3-d]pyrimidin-4-yl]oxy}ethyl]phenoxy}methyl)pyrimidin-2-yl]phenyl}-α-D-mannopyranoside]	7.2e-09 M	–	37.1 nM
COC1OC(COc2cccc(-c3nccc(COc4ccccc4CC(Oc4ncnc5sc(-c6ccc(F)cc6)c(-c6ccc(OCCN7CCN(C)CC7)c(Cl)c6C)c45)C(=O)O)n3)c2)C(OC)C(OC)C1OC [Example 17, methyl 6-O-{3-[4-({2-[(2R)-2-carboxy-2-{[(5Sa)-5-{3-chloro-2-methyl-4-[2-(4methylpiperazin-1-yl)ethoxy]phenyl}-6-(4-fluorophenyl)thieno[2,3-d]pyrimidin-4-yl]oxy}ethyl]phenoxy}methyl)pyrimidin-2-yl]phenyl}-2,3,4-tri-O-methyl-α-D-mannopyranoside]	4.8e-09 M	3.03 nM	–
COC1OC(COc2ccc(-c3nccc(COc4ccccc4CC(Oc4ncnc5sc(-c6ccc(F)cc6)c(-c6ccc(OCCN7CCN(C)CC7)c(Cl)c6C)c45)C(=O)O)n3)cc2)C(O)C(O)C1O [Example 18, methyl 6-O-{4-[4-({2-[(2R)-2-carboxy-2-{[(5Sa)-5-{3-chloro-2-methyl-4-[2-(4-methylpiperazin-1-yl)ethoxy]phenyl}-6-(4-flurophenyl)thieno[2,3-d]pyrimidin-4-yl]oxy}ethyl]phenoxy}methyl)pyrimidin-2-yl]phenyl}-α-D-mannopyranoside]	4.1e-09 M	–	13.9 nM
COC1OC(COc2ccc(-c3nccc(COc4ccccc4CC(Oc4ncnc5sc(-c6ccc(F)cc6)c(-c6ccc(OCCN7CCN(C)CC7)c(Cl)c6C)c45)C(=O)O)n3)cc2)C(OC)C(OC)C1OC [Example 19, methyl 6-O-{4-[4-({2-[(2R)-2-carboxy-2-{[(5Sa)-5-{3-chloro-2-methyl-4-[2-(4-methylpiperazin-1-yl)ethoxy]phenyl}-6-(4-fluorophenyl)thieno[2,3-d]pyrimidin-4-yl]oxy}ethyl]phenoxy}methyl)pyrimidin-2-yl]phenyl}-2,3,4-tri-O-methyl-α-D-mannopyranoside]	4.95e-09 M	2.47 nM	–
Cc1c(-c2c(-c3ccc(F)cc3)sc3ncnc(OC(Cc4ccccc4OCc4ccnc(-c5ccc(OCC6OC(O)C(O)C(O)C6O)cc5)n4)C(=O)O)c23)ccc(OCCN2CCN(C)CC2)c1Cl [Example 20, 6-O-{4-[4-({2-[(2R)-2-carboxy-2-{[(5Sa)-5-{3-chloro-2-methyl-4-[2-(4-methylpiperazin-1-yl)ethoxy]phenyl}-6-(4-fluorophenyl)thieno[2,3-d]pyrimidin-4-yl]oxy}ethyl]phenoxy}methyl)pyrimidin-2-yl]phenyl}-D-mannopyranose]	4.35e-09 M	56.8 nM	–
Cc1c(-c2c(-c3ccc(F)cc3)sc3ncnc(O[C@H](Cc4ccccc4OCc4ccnc(-c5ccccc5OC[C@@H](O)[C@@H](O)[C@H](O)[C@H](O)C(=O)O)n4)C(=O)O)c23)ccc(OCCN2CCN(C)CC2)c1Cl [Example 21]	4.85e-09 M	–	> 150 nM
Cc1c(-c2c(-c3ccc(F)cc3)sc3ncnc(OC(Cc4ccccc4OCc4ccnc(-c5ccc(COC6(C)OC7OC(CO)C(O)C(O)C7O6)cc5)n4)C(=O)O)c23)ccc(OCCN2CCN(C)CC2)c1Cl [Example 22, 1,2-O-[(1R)-1-({4-[4-({2-[(2R)-2-carboxy-2-{[(5Sa)-5-{3-chloro-2-methyl-4-[2-(4-methylpiperazin-1-yl)ethoxy]phenyl}-6-(4-fluorophenyl)thieno[2,3-d]pyrimidin-4-yl]oxy}ethyl]phenoxy}methyl)pyrimidin-2-yl]benzyl}oxy)ethylidene]-β-D-mannopyranose]	5.5e-09 M	5.97 nM	–
Cc1c(-c2c(-c3ccc(F)cc3)sc3ncnc(OC(Cc4ccccc4OCc4ccnc(-c5ccc(COC6OC(CO)C(O)C(O)C6O)cc5)n4)C(=O)O)c23)ccc(OCCN2CCN(C)CC2)c1Cl [Example 23, (2R)-2-{[(5Sa)-5-{3-chloro-2-methyl-4-[2-(4-methylpiperazin-1-yl)ethoxy]phenyl}-6-(4-flurophenyl)thieno[2,3-d]pyrimidin-4-yl]oxy}-3-{2-[(2-{4-[(α-D-mannopyranosyloxy)methyl]phenyl}pyrimidin-4-yl)methoxy]phenyl}propanoic acid]	2.7e-09 M	–	39.7 nM
Cc1c(-c2c(-c3ccc(F)cc3)sc3ncnc(OC(Cc4ccccc4OCc4ccnc(-c5ccc(CCO)cc5)n4)C(=O)O)c23)ccc(OCCN2CCN(C)CC2)c1Cl [Example 24, (2R)-2-{[(5Sa)-5-{3-chloro-methyl-4-[2-(4methylpiperazin-1-yl)ethoxy]phenyl}-6-(4-fluorophenyl)thieno[2,3-d]pyrimidin-4-yl]oxy}-3-[2-({2-[4-(2-hydroxyethyl)phenyl]pyrimidin-4-yl}methoxy)phenyl]propanoic acid]	3.15e-09 M	2.55 nM	–
Cc1c(-c2c(-c3ccc(F)cc3)sc3ncnc(OC(Cc4ccccc4OCc4ccnc(-c5ccccc5OCC(O)CO)n4)C(=O)O)c23)ccc(OCCN2CCN(C)CC2)c1Cl [Example 25, (2R)-2-{[(5Sa)-5-{3-chloro-2-methyl-4-[2-(4-methylpiperazin-1-yl)ethoxy]phenyl}-6-(4-fluorophenyl)thieno[2,3-d]pyrimidin-4-yl]oxy}-3-[2-({2-[2-(2,3-dihydroxypropoxy)phenyl]pyrimidin-4-}methoxy)phenyl]propanoic acid]	3.45e-09 M	10 nM	–
Cc1c(-c2c(-c3ccc(F)cc3)sc3ncnc(OC(Cc4ccccc4OCc4ccnc(-c5ccccc5OCCO)n4)C(=O)O)c23)ccc(OCCN2CCN(C)CC2)c1Cl [Example 26, (2R)-2-{[(5Sa)-5-{3-chloro-2-methyl-4-[2-(4methylpiperazin-1-yl)ethoxy]phenyl}-6-(4-fluorophenyl)thieno[2,3-d]pyrimidin-4-yl]oxy}-3-[2-({2-[2-(2-hydroxyethoxy)phenyl]pyrimidin-4-yl}methoxy)phenyl]propanoic acid]	3.45e-09 M	1.72 nM	–

From US10322131B2, “Hydroxyacid derivatives, a process for their preparation and pharmaceutical compositions containing them” (LES LABORATOIRES SERVIER, priority 2015, dated 2019)
